Earlier results as cited in patent publication US6642211B2 (Wisconsin Alumni Research Foundation, priority 2001, dated 2003).

Tests used:
[1] = test system: recurrent malignant glioma
[2] = test system: human tumor xenografts, including malignant glioma; settings: wide variety of human tumor xenografts
[3] = test system: high grade gliomas and malignant melanoma
[4] = prolonged infusions of up to 30 days, patients with leukemia

effect on pharmacokinetics or protein binding of carboplatin ([1]; thymidine-carboplatin interaction) | SMILES | anti-cancer activity (leukemia; [4]) | myelotoxicity (leukemia; [4]) | efficacy (leukemia; shorter infusions of high dose thymidine) | protection against carboplatin myelotoxicity ([1]; Phase I) | cell killing in vitro (neoplastic cells) | tumor regression [2] | dose-limiting toxicity ([3]; human, in vivo) | clinical efficacy ([3]; treatment of high grade gliomas and malignant melanoma)
not to affect | Cc1cn([C@H]2C[C@H](O)[C@@H](CO)O2)c(=O)[nH]c1=O [Thymidine] | anti-cancer activity | significant myelotoxicity | effective | protect against dose-limiting carboplatin myelotoxicity | preferentially kills neoplastic cells | induces partial regression |  | 
 | Cn1nnc2c(C(N)=O)ncn2c1=O [Temozolamide] |  |  |  |  |  |  | related to myelosuppression | demonstrated clinical efficacy
